Measured values from patent US20080200454A1, “CARBON-LINKED TETRAHYDRO-PYRAZOLO-PYRIDINE MODULATORS OF CATHEPSIN S” (priority 2007, published 2008).
Read-outs that look alike come from different tables or passages of the source.

Molecular target: Recombinant human cathepsin S (CatS) (Homo sapiens, UniProt P25774)
Assay: Recombinant human cathepsin S (CatS) inhibition assay, fluorogenic substrate Z-Valine-Valine-Arginine-AMC;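 further: Baculovirus-expressed CatS in pH 5.0 sodium acetate buffer with DTT and NaCl, fluorescence read each minute over 20 min, inhibition derived from rate slope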

Chain of Recombinant human cathepsin S (CatS) (P25774 115-331): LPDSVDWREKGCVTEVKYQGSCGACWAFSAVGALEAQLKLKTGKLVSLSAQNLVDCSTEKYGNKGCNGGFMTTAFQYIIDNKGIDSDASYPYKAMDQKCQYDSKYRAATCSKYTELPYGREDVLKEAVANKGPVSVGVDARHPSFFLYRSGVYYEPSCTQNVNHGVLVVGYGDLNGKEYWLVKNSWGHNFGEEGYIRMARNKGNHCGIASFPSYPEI

Row | Structure (SMILES) | IC50 (CatS IC50) [nM] | IC50 [nM]
1 | NC(=O)N1CCc2c(c(-c3ccc(Cl)c(C#Cc4ccc5c(c4)CN(Cc4ccc(Cl)cc4)CC5)c3)nn2CCCN2CCOCC2)C1 [Example 465, 3-[4-Chloro-3-({2-[(4-chlorophenyl)methyl]-1,2,3,4-tetrahydroisoquinolin-7-yl}ethynyl)phenyl]-1-(3-morpholin-4-ylpropyl)-1,4,6,7-tetrahydro-5H-pyrazolo[4,3-c]pyridine-5-carboxamide] | 150 | 
2 | CS(=O)(=O)N1CCc2c(c(-c3ccc(Cl)c(C#Cc4ccc5c(c4)CN[C@H](C(=O)N4CCCC4)C5)c3)nn2CCCN2CCOCC2)C1 [Example 466, (3S)-7-({2-Chloro-5-[5-(methylsulfonyl)-1-(3-morpholin-4-ylpropyl)-4,5,6,7-tetrahydro-1H-pyrazolo[4,3-c]pyridin-3-yl]phenyl}ethynyl)-3-(pyrrolidin-1-ylcarbonyl)-1,2,3,4-tetrahydroisoquinoline] |  | 50
3 | C[C@H]1COCCN1CCCn1nc(-c2ccc(Cl)c(C#Cc3ccc4c(c3)CN(C(=O)OC(C)(C)C)CC4)c2)c2c1CCN(S(C)(=O)=O)C2 [Example 467, 1,1-Dimethylethyl 7-({2-chloro-5-[1-{3-[(3S)-3-methylmorpholin-4-yl]propyl}-5-(methylsulfonyl)-4,5,6,7-tetrahydro-1H-pyrazolo[4,3-c]pyridin-3-yl]phenyl}ethynyl)-3,4-dihydroisoquinoline-2(1H)-carboxylate] | 260 | 
4 | CS(=O)(=O)N1CCc2c(c(-c3ccc(Cl)c(C#Cc4ccc(CNCc5ccc(Cl)cc5)cc4)c3)nn2CCCN2CC3(COC3)C2)C1 [Example 468, 1-{4-[(2-Chloro-5-{5-(methylsulfonyl)-1-[3-(2-oxa-6-azaspiro[3.3]hept-6-yl)propyl]-4,5,6,7-tetrahydro-1H-pyrazolo[4,3-c]pyridin-3-yl}phenyl)ethynyl]phenyl}-N-[(4-chlorophenyl)methyl]methanamine] |  | 190
5 | CS(=O)(=O)N1CCc2c(c(-c3ccc(Cl)c(C#Cc4ccc(CNCCO)cc4)c3)nn2CCCN2CCOCC2)C1 [Example 469, 2-({[4-({2-Chloro-5-[5-(methylsulfonyl)-1-(3-morpholin-4-ylpropyl)-4,5,6,7-tetrahydro-1H-pyrazolo[4,3-c]pyridin-3-yl]phenyl}ethynyl)phenyl]methyl}amino)ethanol] | 530 | 
6 | CS(=O)(=O)N1CCc2c(c(-c3ccc(Cl)c(C#Cc4ccc(CNC5CCc6ccccc65)cc4)c3)nn2CCCN2CCN(c3ccccn3)CC2)C1 (centres unmarked) [Example 470, N-({4-[(2-Chloro-5-{5-(methylsulfonyl)-1-[3-(4-pyridin-2-ylpiperazin-1-yl)propyl]-4,5,6,7-tetrahydro-1H-pyrazolo[4,3-c]pyridin-3-yl}phenyl)ethynyl]phenyl}methyl)-2,3-dihydro-1H-inden-1-amine] |  | 50
7 | CS(=O)(=O)N1CCc2c(c(-c3ccc(Cl)c(C#CC4CCCCC4)c3)nn2C[C@@H](O)CN2CCC(C3CCNCC3)CC2)C1 [Example 472, (2S)-1-(4,4′-Bipiperidin-1-yl)-3-{3-[4-chloro-3-(cyclohexylethynyl)phenyl]-5-(methylsulfonyl)-4,5,6,7-tetrahydro-1H-pyrazolo[4,3-c]pyridin-1-yl}propan-2-ol] |  | 4510
8 | CS(=O)(=O)N1CCc2c(c(-c3ccc(Cl)c(C#Cc4ccccn4)c3)nn2C[C@@H](O)CN2CCC(C3CCNCC3)CC2)C1 [Example 473, (2S)-1-(4,4′-Bipiperidin-1-yl)-3-{3-[4-chloro-3-(pyridin-2-ylethynyl)phenyl]-5-(methylsulfonyl)-4,5,6,7-tetrahydro-1H-pyrazolo[4,3-c]pyridin-1-yl}propan-2-ol] | 120 | 
9 | CS(=O)(=O)N1CCc2c(c(-c3ccc(Cl)c(C#CCc4ccccc4)c3)nn2C[C@@H](O)CN2CCC(C3CCNCC3)CC2)C1 [Example 474, (2S)-1-(4,4′-Bipiperidin-1-yl)-3-{3-[4-chloro-3-(3-phenylprop-1-yn-1-yl)phenyl]-5-(methylsulfonyl)-4,5,6,7-tetrahydro-1H-pyrazolo[4,3-c]pyridin-1-yl}propan-2-ol] |  | 430
10 | CS(=O)(=O)N1CCc2c(c(-c3ccc(Cl)c(C#Cc4cccnc4)c3)nn2C[C@@H](O)CN2CCC(C3CCNCC3)CC2)C1 [Example 475, (2S)-1-(4,4′-Bipiperidin-1-yl)-3-{3-[4-chloro-3-(pyridin-3-ylethynyl)phenyl]-5-(methylsulfonyl)-4,5,6,7-tetrahydro-1H-pyrazolo[4,3-c]pyridin-1-yl}propan-2-ol] | 180 | 
11 | NC(=O)N1CCc2c(c(-c3ccc(Cl)c(CCc4ccc(CNCc5ccc(Cl)cc5)cc4)c3)nn2CCCN2CCOCC2)C1 [Example 476, 3-(4-Chloro-3-{2-[4-({[(4-chlorophenyl)methyl]amino}methyl)phenyl]ethyl}phenyl)-1-(3-morpholin-4-ylpropyl)-1,4,6,7-tetrahydro-5H-pyrazolo[4,3-c]pyridine-5-carboxamide] |  | 120
12 | NC(=O)N1CCc2c(c(-c3ccc(Cl)c(C#Cc4ccc(CN[C@@H]5CCCc6ccccc65)cc4)c3)nn2CCCN2CCOCC2)C1 [Example 477, 3-{4-Chloro-3-[(4-{[(1R)-1,2,3,4-tetrahydronaphthalen-1-ylamino]methyl}phenyl)ethynyl]phenyl}-1-(3-morpholin-4-ylpropyl)-1,4,6,7-tetrahydro-5H-pyrazolo[4,3-c]pyridine-5-carboxamide] | 100 | 
13 | CC(NCc1ccc(C#Cc2cc(-c3nn(CCCN4CCN(c5ccccc5)CC4)c4c3CN(S(C)(=O)=O)CC4)ccc2Cl)cc1)c1ccccc1 (centres unmarked) [Example 478, N-({4-[(2-Chloro-5-{5-(methylsulfonyl)-1-[3-(4-phenylpiperazin-1-yl)propyl]-4,5,6,7-tetrahydro-1H-pyrazolo[4,3-c]pyridin-3-yl}phenyl)ethynyl]phenyl}methyl)-1-phenylethanamine] |  | 40
14 | NC(=O)N1CCc2c(c(-c3ccc(Cl)c(CCc4ccc(Cl)cc4)c3)nn2C[C@@H](O)CN2CCC(C3CCNCC3)CC2)C1 [Example 479, 1-[(2S)-3-(4,4′-Bipiperidin-1-yl)-2-hydroxypropyl]-3-{4-chloro-3-[2-(4-chlorophenyl)ethyl]phenyl}-1,4,6,7-tetrahydro-5H-pyrazolo[4,3-c]pyridine-5-carboxamide] |  | 20
15 | CS(=O)(=O)N1CCc2c(c(-c3ccc(Cl)c(C#Cc4ccc(CNCC(F)(F)F)cc4)c3)nn2CCCN2CCN(c3ccccc3)CC2)C1 [Example 480, N-({4-[(2-Chloro-5-{5-(methylsulfonyl)-1-[3-(4-phenylpiperazin-1-yl)propyl]-4,5,6,7-tetrahydro-1H-pyrazolo[4,3-c]pyridin-3-yl}phenyl)ethynyl]phenyl}methyl)-2,2,2-trifluoroethanamine] | 100 | 
16 | C[C@H]1COCCN1CCCn1nc(-c2ccc(Cl)c(C#Cc3ccc4c(c3)CN(C3CC3)CC4)c2)c2c1CCNC2 [Example 481, 7-{[2-Chloro-5-(1-{3-[(3S)-3-methylmorpholin-4-yl]propyl}-4,5,6,7-tetrahydro-1H-pyrazolo[4,3-c]pyridin-3-yl)phenyl]ethynyl}-2-cyclopropyl-1,2,3,4-tetrahydroisoquinoline] |  | 3520
17 | CS(=O)(=O)N1CCc2c(c(-c3ccc(Cl)c(C#Cc4ccc5cc[nH]c5n4)c3)nn2CCCN2CCOCC2)C1 [Example 482, 3-[4-Chloro-3-(1H-pyrrolo[2,3-b]pyridin-6-ylethynyl)phenyl]-5-(methylsulfonyl)-1-(3-morpholin-4-ylpropyl)-4,5,6,7-tetrahydro-1H-pyrazolo[4,3-c]pyridine] | 180 | 
18 | CS(=O)(=O)N1CCc2c(c(-c3ccc(Cl)c(C#Cc4ccc5c(c4)CC(C(=O)N4CCOCC4)NC5)c3)nn2CCCN2CCOCC2)C1 (centres unmarked) [Example 483, 6-({2-Chloro-5-[5-(methylsulfonyl)-1-(3-morpholin-4-ylpropyl)-4,5,6,7-tetrahydro-1H-pyrazolo[4,3-c]pyridin-3-yl]phenyl}ethynyl)-3-(morpholin-4-ylcarbonyl)-1,2,3,4-tetrahydroisoquinoline] |  | 140
19 | CS(=O)(=O)N1CCc2c(c(-c3ccc(Cl)c(C#Cc4ccc5c(c4)CC(C(=O)N4CCCC4)NC5)c3)nn2CCCN2CCOCC2)C1 (centres unmarked) [Example 484, 6-({2-Chloro-5-[5-(methylsulfonyl)-1-(3-morpholin-4-ylpropyl)-4,5,6,7-tetrahydro-1H-pyrazolo[4,3-c]pyridin-3-yl]phenyl}ethynyl)-3-(pyrrolidin-1-ylcarbonyl)-1,2,3,4-tetrahydroisoquinoline] |  | 180
20 | CN1CCN(C(=O)[C@@H]2Cc3ccc(C#Cc4cc(-c5nn(CCCN6CCOCC6)c6c5CN(S(C)(=O)=O)CC6)ccc4Cl)cc3CN2)CC1 [Example 485, (3S)-7-({2-Chloro-5-[5-(methylsulfonyl)-1-(3-morpholin-4-ylpropyl)-4,5,6,7-tetrahydro-1H-pyrazolo[4,3-c]pyridin-3-yl]phenyl}ethynyl)-3-[(4-methylpiperazin-1-yl)carbonyl]-1,2,3,4-tetrahydroisoquinoline] | 50 | 
21 | CS(=O)(=O)N1CCc2c(c(-c3ccc(Cl)c(C#Cc4ccc5c(c4)CN[C@H](C(=O)N4CCCCC4)C5)c3)nn2CCCN2CCOCC2)C1 [Example 486, (3S)-7-({2-Chloro-5-[5-(methylsulfonyl)-1-(3-morpholin-4-ylpropyl)-4,5,6,7-tetrahydro-1H-pyrazolo[4,3-c]pyridin-3-yl]phenyl}ethynyl)-3-(piperidin-1-ylcarbonyl)-1,2,3,4-tetrahydroisoquinoline] |  | 30
22 | NC(=O)N1CCc2c(c(-c3ccc(Cl)c(C#Cc4ccc(CNCc5cccc(Cl)c5)cc4)c3)nn2CCCN2CCSCC2)C1 [Example 487, 3-(4-Chloro-3-{[4-({[(3-chlorophenyl)methyl]amino}methyl)phenyl]ethynyl}phenyl)-1-(3-thiomorpholin-4-ylpropyl)-1,4,6,7-tetrahydro-5H-pyrazolo[4,3-c]pyridine-5-carboxamide] | 60 | 
23 | NC(=O)N1CCc2c(c(-c3ccc(Cl)c(C#Cc4ccc(CNCc5ccccc5Cl)cc4)c3)nn2CCCN2CCSCC2)C1 [Example 488, 3-(4-Chloro-3-{[4-({[(2-chlorophenyl)methyl]amino}methyl)phenyl]ethynyl}phenyl)-1-(3-thiomorpholin-4-ylpropyl)-1,4,6,7-tetrahydro-5H-pyrazolo[4,3-c]pyridine-5-carboxamide] | 140 | 
